Read-outs that look alike come from different tables or passages of the source.
Experiments:
SIK2 = target: T1, SIK2 (Homo sapiens, UniProt Q9H0K1); experiment: single-point (1 uM) inhibition assay (ProQinase Kinase Profiler); type: biochemical; details: read-out: % residual activity class (FIG. 3)
T1 construct: purchased ProQinase

RET = target: T2, RET (Homo sapiens, UniProt P07949); experiment: as above; type: biochemical
T2 construct: purchased ProQinase, Freiburg, Germany (Kinase Profiler panel)

ACV-R1 = target: T3, ACV-R1 (Homo sapiens, UniProt Q04771); experiment: as above; type: biochemical; details: read-out: % residual activity class (FIG. 3)
T3 construct: purchased ProQinase

SIK1 = target: T4, SIK1 (Homo sapiens, UniProt P57059); experiment: as above; type: biochemical; details: read-out: % residual activity class (FIG. 3)
T4 construct: purchased ProQinase

RIPK2 = target: T5, RIPK2 (Homo sapiens, UniProt O43353); experiment: as above; type: biochemical; details: 1 uM compound, read-out: % residual activity class (FIG. 3)
T5 construct: purchased ProQinase

MDCK-MDR1 cells = details: dog
ABL2 = target: T6, ABL2 (Homo sapiens, UniProt P42684); experiment: single-point (1 uM) inhibition assay (ProQinase Kinase Profiler); type: biochemical; details: 1 uM compound, read-out: % residual activity class (FIG. 3)
T6 construct: purchased ProQinase

FRK = target: T7, FRK (Homo sapiens, UniProt P42685); experiment: as above; type: biochemical; details: 1 uM compound, read-out: % residual activity class (FIG. 3)
T7 construct: purchased ProQinase

ZAK = target: T8, ZAK (Homo sapiens, UniProt Q9NYL2); experiment: as above; type: biochemical; details: 1 uM compound, read-out: % residual activity class (FIG. 3)
T8 construct: purchased ProQinase

ACV-R1B = target: T9, ACV-R1B (Homo sapiens, UniProt P36896); experiment: as above; type: biochemical; details: read-out: % residual activity class (FIG. 3)
T9 construct: purchased ProQinase

MDCK-wild type cells = details: dog
BLK = target: T10, BLK (Homo sapiens, UniProt P51451); experiment: single-point (1 uM) inhibition assay (ProQinase Kinase Profiler); type: biochemical; details: 1 uM compound, read-out: % residual activity class (FIG. 3)
T10 construct: purchased ProQinase

PDGFR-alpha = target: T11, PDGFR-alpha (Homo sapiens, UniProt P16234); experiment: as above; type: biochemical; details: read-out: % residual activity class (FIG. 3)
T11 construct: purchased ProQinase

MAP4K5 = target: T12, MAP4K5 (Homo sapiens, UniProt Q9Y4K4); experiment: as above; type: biochemical; details: read-out: % residual activity class (FIG. 3)
T12 construct: purchased ProQinase

EPHB1 = target: T13, EPHB1 (Homo sapiens, UniProt P54762); experiment: as above; type: biochemical
T13 construct: purchased ProQinase

SRMS = target: T14, SRMS (Homo sapiens, UniProt Q9H3Y6); experiment: as above; type: biochemical; details: 1 uM compound, read-out: % residual activity class (FIG. 3)
T14 construct: purchased ProQinase

EPHB2 = target: T15, EPHB2 (Homo sapiens, UniProt P29323); experiment: as above; type: biochemical; details: read-out: % residual activity class (FIG. 3)
T15 construct: purchased ProQinase

EPHA3 = target: T16, EPHA3 (Homo sapiens, UniProt P29320); experiment: as above; type: biochemical
T16 construct: purchased ProQinase

FGR = target: T17, FGR (Homo sapiens, UniProt P09769); experiment: as above; type: biochemical; details: 1 uM compound, read-out: % residual activity class (FIG. 3)
T17 construct: purchased ProQinase

CSK = target: T18, CSK (Homo sapiens, UniProt P41240); experiment: as above; type: biochemical; details: 1 uM compound, read-out: % residual activity class (FIG. 3)
T18 construct: purchased ProQinase

PDGFR-beta = target: T19, PDGFR-beta (Homo sapiens, UniProt P09619); experiment: biochemical
T19 construct: purchased ProQinase

HCK = target: T20, HCK (Homo sapiens, UniProt P08631); experiment: single-point (1 uM) inhibition assay (ProQinase Kinase Profiler); type: biochemical; details: 1 uM compound, read-out: % residual activity class (FIG. 3)
T20 construct: purchased ProQinase

SIK3 = target: T21, SIK3 (Homo sapiens, UniProt Q9Y2K2); experiment: as above; type: biochemical; details: read-out: % residual activity class (FIG. 3)
T21 construct: purchased ProQinase

TXK = target: T22, TXK (Homo sapiens, UniProt P42681); experiment: as above; type: biochemical; details: 1 uM compound, read-out: % residual activity class (FIG. 3)
T22 construct: purchased ProQinase

TEC = target: T23, TEC (Homo sapiens, UniProt P42680); experiment: as above; type: biochemical; details: 1 uM compound, read-out: % residual activity class (FIG. 3)
T23 construct: purchased ProQinase

NLK = target: T24, NLK (Homo sapiens, UniProt Q9UBE8); experiment: as above; type: biochemical; details: 1 uM compound, read-out: % residual activity class (FIG. 3)
T24 construct: purchased ProQinase

FYN = FYN (Homo sapiens, UniProt P06241); experiment: as above; details: read-out: % residual activity class (FIG. 3)
LYN = target: T25, LYN (Homo sapiens, UniProt P07948); experiment: as above; type: biochemical; details: 1 uM compound, read-out: % residual activity class (FIG. 3)
T25 construct: purchased ProQinase

p38-alpha = target: T26, p38-alpha (Homo sapiens, UniProt Q16539); experiment: as above; type: biochemical; details: read-out: % residual activity class (FIG. 3)
T26 construct: purchased ProQinase

ACK1 = target: T27, ACK1 (Homo sapiens, UniProt Q07912); experiment: as above; type: biochemical; details: 1 uM compound, read-out: % residual activity class (FIG. 3)
T27 construct: purchased ProQinase

DDR2 = target: T28, DDR2 (Homo sapiens, UniProt Q16832); experiment: as above; type: biochemical; details: 1 uM compound, read-out: % residual activity class (FIG. 3)
T28 construct: purchased ProQinase, Freiburg, Germany (Kinase Profiler panel)

FGF-R2 = FGF-R2 (Homo sapiens, UniProt P21802); experiment: as above; type: biochemical; details: read-out: % residual activity class (FIG. 3)
ACV-RL1 = target: T29, ACV-RL1 (Homo sapiens, UniProt P37023); experiment: as above; type: biochemical; details: 1 uM compound, read-out: % residual activity class (FIG. 3)
T29 construct: purchased ProQinase

CSF1-R = target: T30, CSF1-R (Homo sapiens, UniProt P07333); experiment: as above; type: biochemical; details: 1 uM compound, read-out: % residual activity class (FIG. 3)
T30 construct: purchased ProQinase

EPHA4 = target: T31, EPHA4 (Homo sapiens, UniProt P54764); experiment: as above; type: biochemical
T31 construct: purchased ProQinase

[1] = mouse liver microsomal stability; type: in vitro ADME
WNK2 = WNK2 (Homo sapiens, UniProt Q9Y3S1); experiment: biochemical; details: read-out: Residual activity (%) at 1 uM
NIK = NIK (Homo sapiens, UniProt Q99558); experiment: biochemical; details: read-out: Residual activity (%) at 1 uM
SRC = target: T32, SRC (Homo sapiens, UniProt P12931); experiment: biochemical; details: 1 uM compound, read-out: % residual activity class (FIG. 3)
T32 construct: purchased ProQinase

LCK = target: T33, LCK (Homo sapiens, UniProt P06239); experiment: single-point (1 uM) inhibition assay (ProQinase Kinase Profiler); type: biochemical; details: 1 uM compound, read-out: % residual activity class (FIG. 3)
T33 construct: purchased ProQinase

FLT3 = target: T34, FLT3 (Homo sapiens, UniProt P36888); experiment: as above; type: biochemical; details: read-out: % residual activity class (FIG. 3)
T34 construct: purchased ProQinase

[2] = read-out: Residual activity (%) at 1 uM, RET
[3] = read-out: % residual activity class (FIG. 3)
[4] = PDGFR-beta, 1 uM compound, read-out: % residual activity class (FIG. 3)
[5] = read-out: Residual activity (%) at 1 uM

T13 sequence (P54762 18-984): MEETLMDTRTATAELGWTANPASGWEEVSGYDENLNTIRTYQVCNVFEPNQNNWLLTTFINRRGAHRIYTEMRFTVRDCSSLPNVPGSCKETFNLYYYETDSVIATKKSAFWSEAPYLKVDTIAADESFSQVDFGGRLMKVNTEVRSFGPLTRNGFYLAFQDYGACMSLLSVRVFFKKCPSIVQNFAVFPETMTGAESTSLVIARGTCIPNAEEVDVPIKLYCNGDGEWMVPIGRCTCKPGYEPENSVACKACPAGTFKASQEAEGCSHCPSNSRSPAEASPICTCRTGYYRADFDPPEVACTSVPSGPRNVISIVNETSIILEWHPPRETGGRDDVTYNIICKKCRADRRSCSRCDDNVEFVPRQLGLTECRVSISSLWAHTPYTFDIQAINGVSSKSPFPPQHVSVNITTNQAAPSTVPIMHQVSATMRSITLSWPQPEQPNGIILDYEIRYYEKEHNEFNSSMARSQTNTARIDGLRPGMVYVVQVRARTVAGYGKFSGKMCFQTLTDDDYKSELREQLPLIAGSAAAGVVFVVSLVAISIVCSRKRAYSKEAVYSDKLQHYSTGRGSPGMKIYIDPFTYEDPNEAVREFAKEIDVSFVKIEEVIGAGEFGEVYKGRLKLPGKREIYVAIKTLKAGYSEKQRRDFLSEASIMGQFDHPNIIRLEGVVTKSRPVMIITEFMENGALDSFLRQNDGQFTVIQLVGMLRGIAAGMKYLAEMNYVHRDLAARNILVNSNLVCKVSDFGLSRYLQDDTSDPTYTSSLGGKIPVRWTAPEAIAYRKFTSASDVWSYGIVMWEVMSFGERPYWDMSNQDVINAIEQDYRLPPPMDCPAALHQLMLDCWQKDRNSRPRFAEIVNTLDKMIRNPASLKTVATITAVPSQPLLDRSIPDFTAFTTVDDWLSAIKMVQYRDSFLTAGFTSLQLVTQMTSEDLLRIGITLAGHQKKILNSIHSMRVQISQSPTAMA
T19 sequence (P09619 33-1106): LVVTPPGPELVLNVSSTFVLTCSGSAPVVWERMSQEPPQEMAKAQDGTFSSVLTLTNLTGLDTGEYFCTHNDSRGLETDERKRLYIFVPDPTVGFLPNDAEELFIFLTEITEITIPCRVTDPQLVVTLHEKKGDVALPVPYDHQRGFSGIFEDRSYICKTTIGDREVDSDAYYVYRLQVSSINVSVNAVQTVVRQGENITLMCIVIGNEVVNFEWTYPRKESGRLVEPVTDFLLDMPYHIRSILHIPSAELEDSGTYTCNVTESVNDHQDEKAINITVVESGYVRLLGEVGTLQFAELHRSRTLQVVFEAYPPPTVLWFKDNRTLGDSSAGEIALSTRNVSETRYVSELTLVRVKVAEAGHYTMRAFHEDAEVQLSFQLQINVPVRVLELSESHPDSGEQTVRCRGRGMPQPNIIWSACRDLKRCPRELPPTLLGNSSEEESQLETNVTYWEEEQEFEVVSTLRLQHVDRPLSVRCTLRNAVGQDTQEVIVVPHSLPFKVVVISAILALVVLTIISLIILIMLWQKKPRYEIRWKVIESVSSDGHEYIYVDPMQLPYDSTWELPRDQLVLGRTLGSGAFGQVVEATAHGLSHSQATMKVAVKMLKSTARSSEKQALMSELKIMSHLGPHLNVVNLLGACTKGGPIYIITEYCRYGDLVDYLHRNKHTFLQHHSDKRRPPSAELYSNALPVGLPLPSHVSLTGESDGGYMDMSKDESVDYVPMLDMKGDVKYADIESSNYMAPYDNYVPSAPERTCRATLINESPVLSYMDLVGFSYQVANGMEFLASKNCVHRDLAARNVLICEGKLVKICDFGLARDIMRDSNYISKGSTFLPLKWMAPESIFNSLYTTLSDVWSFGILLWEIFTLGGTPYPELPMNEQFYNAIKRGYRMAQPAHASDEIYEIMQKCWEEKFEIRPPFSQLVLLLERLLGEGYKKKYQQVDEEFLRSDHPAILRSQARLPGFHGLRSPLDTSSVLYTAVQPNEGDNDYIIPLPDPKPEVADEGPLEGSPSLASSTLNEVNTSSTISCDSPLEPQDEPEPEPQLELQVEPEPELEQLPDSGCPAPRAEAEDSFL
T16 sequence (P29320 21-983): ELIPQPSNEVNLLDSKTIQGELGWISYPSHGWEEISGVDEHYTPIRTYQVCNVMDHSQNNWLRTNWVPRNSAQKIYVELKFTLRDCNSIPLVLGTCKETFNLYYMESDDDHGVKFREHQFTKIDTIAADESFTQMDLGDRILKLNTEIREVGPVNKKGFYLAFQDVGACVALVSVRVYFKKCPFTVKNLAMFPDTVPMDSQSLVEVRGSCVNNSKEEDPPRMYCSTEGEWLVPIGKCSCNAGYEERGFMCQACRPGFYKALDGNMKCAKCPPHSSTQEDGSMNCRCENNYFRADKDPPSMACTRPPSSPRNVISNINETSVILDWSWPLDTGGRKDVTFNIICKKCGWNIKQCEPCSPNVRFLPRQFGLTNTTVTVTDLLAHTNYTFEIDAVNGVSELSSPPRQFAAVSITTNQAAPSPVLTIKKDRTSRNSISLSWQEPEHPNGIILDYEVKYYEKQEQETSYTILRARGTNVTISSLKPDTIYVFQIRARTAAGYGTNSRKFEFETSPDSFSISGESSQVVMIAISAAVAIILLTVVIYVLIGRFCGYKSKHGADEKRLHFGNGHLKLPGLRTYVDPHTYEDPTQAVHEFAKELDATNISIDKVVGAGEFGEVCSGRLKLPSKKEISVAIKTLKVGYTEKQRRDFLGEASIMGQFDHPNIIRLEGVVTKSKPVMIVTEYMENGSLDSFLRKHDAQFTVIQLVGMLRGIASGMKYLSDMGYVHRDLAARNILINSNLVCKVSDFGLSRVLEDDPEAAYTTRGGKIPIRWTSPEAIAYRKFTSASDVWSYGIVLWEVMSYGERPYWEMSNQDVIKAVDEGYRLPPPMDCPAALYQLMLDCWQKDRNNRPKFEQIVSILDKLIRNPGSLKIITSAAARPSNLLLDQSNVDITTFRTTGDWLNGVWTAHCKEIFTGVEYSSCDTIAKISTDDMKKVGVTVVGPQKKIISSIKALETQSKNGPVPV
T2 sequence (P07949 29-1114): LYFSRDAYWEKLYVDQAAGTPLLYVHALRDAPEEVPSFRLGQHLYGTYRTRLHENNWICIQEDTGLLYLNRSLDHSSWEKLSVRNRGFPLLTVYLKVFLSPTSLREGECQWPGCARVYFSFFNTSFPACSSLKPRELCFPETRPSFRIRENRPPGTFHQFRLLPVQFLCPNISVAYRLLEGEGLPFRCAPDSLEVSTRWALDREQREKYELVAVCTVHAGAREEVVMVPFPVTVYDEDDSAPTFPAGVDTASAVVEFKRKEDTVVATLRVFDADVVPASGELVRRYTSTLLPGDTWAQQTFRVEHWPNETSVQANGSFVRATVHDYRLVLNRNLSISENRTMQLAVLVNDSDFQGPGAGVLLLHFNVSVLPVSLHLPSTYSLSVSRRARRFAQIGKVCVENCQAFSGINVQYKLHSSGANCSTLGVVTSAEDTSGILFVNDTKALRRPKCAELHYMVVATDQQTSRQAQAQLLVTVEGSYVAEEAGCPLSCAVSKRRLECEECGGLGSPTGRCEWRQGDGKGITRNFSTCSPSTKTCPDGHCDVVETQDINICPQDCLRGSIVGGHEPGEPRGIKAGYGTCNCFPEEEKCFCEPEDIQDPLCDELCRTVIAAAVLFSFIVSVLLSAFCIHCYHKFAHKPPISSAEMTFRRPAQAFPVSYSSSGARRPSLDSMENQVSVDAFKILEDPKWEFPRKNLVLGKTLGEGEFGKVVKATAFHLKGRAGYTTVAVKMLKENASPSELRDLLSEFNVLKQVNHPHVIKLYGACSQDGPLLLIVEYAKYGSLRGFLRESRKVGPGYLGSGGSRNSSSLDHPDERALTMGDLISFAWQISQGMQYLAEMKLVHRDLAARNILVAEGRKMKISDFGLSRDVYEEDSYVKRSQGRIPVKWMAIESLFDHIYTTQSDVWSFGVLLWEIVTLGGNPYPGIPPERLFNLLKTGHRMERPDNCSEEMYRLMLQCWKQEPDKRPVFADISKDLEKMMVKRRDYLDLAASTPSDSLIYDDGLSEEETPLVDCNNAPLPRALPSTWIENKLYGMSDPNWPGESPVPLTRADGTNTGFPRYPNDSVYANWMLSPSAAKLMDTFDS
T9 sequence (P36896 24-505): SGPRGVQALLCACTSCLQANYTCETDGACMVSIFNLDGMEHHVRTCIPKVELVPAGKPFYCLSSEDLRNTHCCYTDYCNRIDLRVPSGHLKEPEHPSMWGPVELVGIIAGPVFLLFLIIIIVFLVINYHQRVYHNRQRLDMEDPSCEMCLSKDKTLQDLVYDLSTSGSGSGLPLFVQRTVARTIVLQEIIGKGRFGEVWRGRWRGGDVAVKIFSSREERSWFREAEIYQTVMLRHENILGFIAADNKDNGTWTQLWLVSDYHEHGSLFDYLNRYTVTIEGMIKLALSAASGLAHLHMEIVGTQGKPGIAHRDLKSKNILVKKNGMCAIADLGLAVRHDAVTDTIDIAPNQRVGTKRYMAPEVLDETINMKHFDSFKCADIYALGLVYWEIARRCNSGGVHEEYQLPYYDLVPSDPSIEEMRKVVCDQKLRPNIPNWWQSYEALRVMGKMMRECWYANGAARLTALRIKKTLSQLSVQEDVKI
T25 sequence (P07948 whole entry): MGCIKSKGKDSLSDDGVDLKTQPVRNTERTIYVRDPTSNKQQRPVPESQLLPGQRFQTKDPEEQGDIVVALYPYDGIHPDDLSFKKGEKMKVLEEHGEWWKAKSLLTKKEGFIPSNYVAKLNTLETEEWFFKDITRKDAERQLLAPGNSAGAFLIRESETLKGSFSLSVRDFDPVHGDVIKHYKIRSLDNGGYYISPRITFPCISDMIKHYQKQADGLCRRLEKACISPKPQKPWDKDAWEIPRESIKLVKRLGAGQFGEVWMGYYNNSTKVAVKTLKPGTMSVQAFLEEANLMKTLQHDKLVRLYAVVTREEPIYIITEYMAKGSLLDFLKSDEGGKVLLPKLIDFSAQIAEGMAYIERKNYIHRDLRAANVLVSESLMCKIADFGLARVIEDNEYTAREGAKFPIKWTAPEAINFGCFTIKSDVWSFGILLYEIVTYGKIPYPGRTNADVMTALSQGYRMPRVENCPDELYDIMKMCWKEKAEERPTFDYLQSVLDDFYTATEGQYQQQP

Cc1nc(Nc2ncc(C(=O)Nc3c(C)cccc3Cl)s2)cc(N2CCN(CCO)CC2)n1 [Compound A8, N-(2-chloro-6-methylphenyl)-2-((6-(4-(2-hydroxyethyl)piperazin-1-yl)-2-methylpyrimidin-4-yl)amino)thiazole-5-carboxamide, reference compound]
2.4: Mean Papp A > B (MDCK-MDR1 cells)
2%: remaining activity at 1 µM (PDGFR-beta; [5])
< 25%: remaining activity at 1 µM (SIK2; SIK2, 1 uM compound) | remaining activity at 1 µM (ACV-R1; ACV-R1, 1 uM compound) | remaining activity at 1 µM (SIK1; SIK1, 1 uM compound) | remaining activity at 1 µM (RIPK2) | remaining activity at 1 µM (ABL2) | remaining activity at 1 µM (FRK) | remaining activity at 1 µM (ZAK) | remaining activity at 1 µM (ACV-R1B; ACV-R1B, 1 uM compound) | remaining activity at 1 µM (BLK) | remaining activity at 1 µM (PDGFR-alpha) | remaining activity at 1 µM (MAP4K5; MAP4K5, 1 uM compound) | remaining activity at 1 µM (EPHB1; [3]) | remaining activity at 1 µM (SRMS) | remaining activity at 1 µM (EPHB2; EPHB2, 1 uM compound) | remaining activity at 1 µM (EPHA3; EPHA3, 1 uM compound, read-out: % residual activity class (FIG. 3)) | remaining activity at 1 µM (FGR) | remaining activity at 1 µM (CSK) | remaining activity at 1 µM (PDGFR-beta; [4]) | remaining activity at 1 µM (HCK) | remaining activity at 1 µM (SIK3; SIK3, 1 uM compound) | remaining activity at 1 µM (TXK) | remaining activity at 1 µM (TEC) | remaining activity at 1 µM (NLK) | remaining activity at 1 µM (FYN) | remaining activity at 1 µM (LYN) | remaining activity at 1 µM (p38-alpha; p38-alpha, 1 uM compound) | remaining activity at 1 µM (ACK1) | remaining activity at 1 µM (DDR2) | remaining activity at 1 µM (ACV-RL1)
< 40%: remaining activity at 1 µM (RET; [2])
21: Mean Papp A > B (MDCK-wild type cells)
25 to 50%: remaining activity at 1 µM (RET; RET, 1 uM compound, read-out: % residual activity class (FIG. 3)) | remaining activity at 1 µM (FGF-R2)
39%: Residual activity (%) at 1 uM (RET; RET, 1 µM)

Cc1nc(Nc2ncc(C(=O)Nc3c(Cl)ccnc3C)s2)cc(N2CCN(CCO)CC2)n1 [Compound B3, N-(4-chloro-2-methylpyridin-3-yl)-2-((6-(4-(2-hydroxyethyl)piperazin-1-yl)-2-methylpyrimidin-4-yl)amino)thiazole-5-carboxamide]
< 25%: remaining activity at 1 µM (CSF1-R) | remaining activity at 1 µM (SIK2) | remaining activity at 1 µM (EPHA4; [3]) | remaining activity at 1 µM (SIK1) | remaining activity at 1 µM (RIPK2) | remaining activity at 1 µM (ABL2) | remaining activity at 1 µM (FRK) | remaining activity at 1 µM (ZAK) | remaining activity at 1 µM (BLK) | remaining activity at 1 µM (PDGFR-alpha) | remaining activity at 1 µM (SRC) | remaining activity at 1 µM (EPHB1; [3]) | remaining activity at 1 µM (LCK) | remaining activity at 1 µM (EPHB2) | remaining activity at 1 µM (EPHA3; [3]) | remaining activity at 1 µM (FGR) | remaining activity at 1 µM (CSK) | remaining activity at 1 µM (PDGFR-beta; [4]) | remaining activity at 1 µM (HCK) | remaining activity at 1 µM (SIK3) | remaining activity at 1 µM (TXK) | remaining activity at 1 µM (TEC) | remaining activity at 1 µM (FYN) | remaining activity at 1 µM (LYN) | remaining activity at 1 µM (ACK1) | remaining activity at 1 µM (DDR2)
93%: Mean recovery A > B (MDCK-MDR1 cells)
120%: Mean recovery B > A (MDCK-wild type cells)
100%: remaining activity at 1 µM (WNK2) | remaining activity at 1 µM (NIK)
6%: remaining activity at 1 µM (PDGFR-beta; [5])
25 to 50%: remaining activity at 1 µM (ACV-R1) | remaining activity at 1 µM (ACV-R1B) | remaining activity at 1 µM (MAP4K5) | remaining activity at 1 µM (SRMS) | remaining activity at 1 µM (FLT3) | remaining activity at 1 µM (NLK) | remaining activity at 1 µM (p38-alpha) | remaining activity at 1 µM (ACV-RL1)
1.03 h: Half-life [1]
~100%: remaining activity at 1 µM (RET; [2])
10%: remaining activity at 1 µM (EPHA4; [5])
0%: remaining activity at 1 µM (EPHB1; [5]) | remaining activity at 1 µM (EPHA3; [5])

Reference: patent US12139480B2, “5-thiazolecarboxamide kinase inhibitor and uses thereof” (iOmx Therapeutics AG, priority 2018, dated 2024)
